Assays:
CA1 neurons = assay: Electrophysiological recordings in acute hippocampal slices (CA1 neurons); parameters: species or system rat; settings: 50 nM bath-applied
Description: Electrophysiological Recordings were made in […] hippocampal slices from 20-36 day old Sprague-Dawley rats perfused at room temperature with ACSF containing (in mM) 126 NaCl, 3 KCl, 2 MgCl2, 2 CaCl2, 1.2 KH2PO4, 26 NaHCO3 and 10 glucose and bubbled with 95% O2/5% CO2. Whole-cell recordings of CA1 neurons were performed using the “blind” method with an Axopatch-1D amplifier (Axon Instruments, Foster City, Calif.) at holding potential −60 mV. Pipettes (4-5 MΩ) were filled with solution containing (mM): 135 CsCl, 2 MgCl2, 0.1 CaCl2, 0.5 EGTA, 10 HEPES, 4 Mg-ATP, 0.2 GTP, and 5 QX-314, pH 7.4, 310 mOsm. Field potentials were recorded with glass micropipettes (2-4 MΩ) filled with ACSF placed in the stratum radiatum […] from the cell body layer. Synaptic responses were evoked by stimulation (0.05 ms) of the Schaffer collateral-commissural pathway with a bipolar tungsten electrode in the presence of bicuculline methiodide (10 μM). For INMDA recording, Mg^2+ was removed from and 20 μM CNQX was added in ACSF. Following 10-20 min base line recordings of EPSCs, INMDA and fEPSPs, Tat-peptides were applied in ACSF and recordings were continued for 30 min thereafter.

[1] = system: transient unilateral middle cerebral artery occlusion
[2] = system: cultured cortical neurons; assay: NMDA excitotoxicity in cultured cortical neurons (propidium iodide fluorescence); type: cell-based, mouse
reactive oxygen species = assay: ROS production (DHR fluorescence); type: cell-based, mouse
Description: The production of reactive oxygen species (ROS) was measured with DHR. In brief, DHR is oxidized to a fluorescent rhodamine-123 (Royall and Ischiropoulos, 1993), and the consequent rise in fluorescence may be used as an indicator of ROS production.
ROS were measured as previously described (Tymianski et al., 1998; Aarts et al., 2003). In brief, cultures were pre-loaded for 30 min with 5 μM DHR and subjected to the experimental insult. DHR fluorescence was measured in a multiwell plate fluorescence scanner (Cytofluor II, PerSeptive Biosytems, Framingham, Mass., USA; 485 nm excitation, 530 emission). DHR fluorescence was normalized to baseline using the formula at (Ft−Fo)/F0; Where Ft=DHR fluorescence at time t, Fo=DHR fluorescence at time zero. DHR fluorescence images were also acquired using a microscope (465-495 nm excitation and 515-555 nm emission) as described above for TMRM.

[3] = system: transient middle cerebral artery occlusion; assay: Transient MCAO, post-treatment study (1 h after MCAO onset); type: in vivo, Sprague-Dawley rats; settings: 3 nMole/g i.v. 1 h after MCAO onset
Description: Next, I examined whether pretreatment with Tat-peptides would reduce stroke damage. Experiments were carried out in adult male Sprague-Dawley rats subjected to transient middle cerebral artery occlusion (MCAO) for 90 minutes by the intraluminal suture method (36,37). Animals were fasted overnight and injected with atropine sulfate (0.5 mg/kg IP). After 10 minutes anesthesia was induced with 3.5% halothane in a mixture of nitrous oxide and oxygen (Vol. 2:1) and maintained with 0.8% halothane. Rats were orally intubated, mechanically ventilated, and paralyzed with pancuronium bromide (0.6 mg/kg IV). Body temperature was maintained at 36.5-37.5° C. with a heating lamp. Polyethylene catheters in the femoral artery and vein were used to continuously record blood pressure and to sample blood for gas and pH measurements. […] This produces an extensive infarction encompassing the cerebral cortex and basal ganglia. […] Physiological parameters (body temperature, blood pressure, blood gases) were monitored and maintained throughout the experiment (Table 1). All experimental manipulations and analyses of data were performed by individuals blinded to the treatment groups. The extent of cerebral infarction was measured 24 h after MCAO onset (FIG. 7C inset). The postural reflex test (38), and the forelimb placing test (39) were used to grade neurological function on a scale of 0 to 12 (normal=0; worst=12) during MCAO (at 50 minutes) and 24 h thereafter.
Next, I examined whether treatment with Tat-NR2B9c could attenuate ischemic neuronal damage in-vivo when given after stroke onset. […] Infarction volume and neurological outcome measurements were performed at times identical to the pre-treatment study. Body temperature, blood pressure and blood gases were monitored throughout the 24 h experiment and maintained equivalent between groups (Table 2).

nNOS = assay: NMDA-evoked cGMP formation (surrogate of NO production by nNOS); type: cell-based, mouse; settings: 50 nM, pre-treated 1 h, NMDA 0-1000 μM
Description: cGMP determinations were performed 10 min after challenging the cultures with NMDA, kainate, or high-K (FIGS. 4c-e) with the Biotrak cGMP enzyme immunoassay system according to the kit manufacturer's instructions (Amersham). Staining for NADPH diaphorase (FIG. 4b) was done as described in ref 12.

Q: For Tat-KLSSIESDV [Tat-NR2B9c], which “synaptic responses, total EPSC and AMPA or NMDA components of the EPSC in CA1 neurons” value (CA1 neurons) is on record?
A: The value was “had no effect”.

Q: What about the “return to pre-surgery weight for 2 consecutive days, earlier than saline or NR2B-AA treated rats” value ([1]; 3 nmoles/g i.v. 3 hours after onset of ischemia) of the same substance?
A: The value was “about 1 week”.

Q: And the “Mean latency to retreat from the open to the closed arm in the elevated plus maze” value ([1]; 6 days following MCA occlusion)?
A: Its value is “significant difference from Tat-NR2B-AA”.

Q: And the “Mean (SE) core temperature during surgery” value ([1]; MCAO 90 min)?
A: Its value is 37.1 (∀0.1).

Q: And the “Mean (SE) core temperature subsequent to surgery” value ([1]; MCAO 90 min)?
A: Its value is 37.9 (∀0.2).

Q: And the “Mean (SE) systolic blood pressure during surgery” value ([1]; MCAO 90 min)?
A: The value was 112 (∀6.3).

Q: And the “Mean (SE) systolic blood pressure prior to surgery” value ([1]; MCAO 90 min)?
A: The value was 106 (∀4.3).

Q: What about the “Mean (SE) systolic blood pressure subsequent to surgery” value ([1]; MCAO 90 min) of the same substance?
A: The value was 122 (∀5.5).

Q: What about the “Mean (SE) core temperature prior to surgery” value ([1]; MCAO 90 min, drug i.v. 3 hours after onset of ischemia) of the same substance?
A: The value was 36.7 (∀0.2).

Q: What about the “individual weight post-surgery versus controls” value ([1]; a number of days including day 56 post-injury) of the same substance?
A: Its value is “significantly heavier”.

Q: And the “Morris water maze acquisition phase” value ([1]; approximately 2 months post-injury)?
A: Its value is “No significant group differences”.

Q: And the “Morris water maze memory (time in the target quadrant)” value ([1]; approximately 2 months post-injury, vs combined control)?
A: The value was “significantly reduced memory deficits”.

Q: What about the “Barnes maze escape latencies, acquisition phase” value ([1]; days 36-45) of the same substance?
A: The value was “consistently shorter mean escape latencies”.

Q: What about the “Barnes maze retest (memory)” value ([1]; days 36-45, relative to controls) of the same substance?
A: Its value is “performed significantly better”.

Q: What about the “Habituation score for grid crosses in the open field arena” value ([1]; difference between day 5 and day 15) of the same substance?
A: The value was “significant difference from Tat-NR2B-AA and Saline”.

Q: And the “latency in horizontal ladder task” value ([1]; post-surgery days 5, 9 and 14)?
A: The value was “significantly reduced latencies”.

Q: And the “number of paw slips in horizontal ladder task” value ([1]; post-surgery days 5, 9 and 14)?
A: Its value is “significantly fewer paw slips”.

Q: And the “total infarct area and volume at 62 days post-surgery” value ([1]; relative to TAT-NR2B-AA and saline)?
A: The value was “reduced total infarct area and volume”.

Q: And the “Mean sensory-motor score over 56 days post-MCAO” value ([1]; treated at 3 hours post-MCAO)?
A: Its value is “significant long-term functional neuroprotection”.

Q: And the “vulnerability of neurons to NMDA toxicity, post-treatment” value ([2]; 50 nM applied after 1 h NMDA challenge (0-100 μM), cell death at 20 h)?
A: Its value is “significantly reduced”.

Q: What about the “NMDA-evoked cell death, pre-treatment” value ([2]; 50 nM for 1 h, then NMDA 0-100 μM 1 h, 20 h observation) of the same substance?
A: Its value is “significantly reduced”.

Q: And the “ROS production by stretch alone” value (reactive oxygen species; 50 nM pretreatment)?
A: Its value is “has no effect”.

Q: And the “NMDA-evoked ROS production (DHR oxidation)” value (reactive oxygen species; 50 nM pretreatment 30 min, stretched and unstretched cultures)?
A: Its value is “reduced NMDA-evoked ROS production”.

Q: And the “24 h neurological scores” value [3]?
A: The value was “significant improvement”.

Q: What about the “reduction in cortical infarction volume” value ([3]; 24 h) of the same substance?
A: Its value is 86.97±4.38%.

Q: What about the “reduction of volume of total cerebral infarction” value ([3]; 24 h, vs controls) of the same substance?
A: The value was 67.0±3.75%.

Q: And the “suppression of NMDA-evoked increase in cGMP (average)” value (nNOS)?
A: Its value is 39.5±6.7%.

— patent publication US8071548B2, “Method of reducing injury to mammalian cells” (Nono, Inc., priority 2002, dated 2011)
